The experiment has as its target T1, Cystathionine β-synthase (CBS) (Homo sapiens, UniProt P35520).
T1 sequence (P35520 1-408): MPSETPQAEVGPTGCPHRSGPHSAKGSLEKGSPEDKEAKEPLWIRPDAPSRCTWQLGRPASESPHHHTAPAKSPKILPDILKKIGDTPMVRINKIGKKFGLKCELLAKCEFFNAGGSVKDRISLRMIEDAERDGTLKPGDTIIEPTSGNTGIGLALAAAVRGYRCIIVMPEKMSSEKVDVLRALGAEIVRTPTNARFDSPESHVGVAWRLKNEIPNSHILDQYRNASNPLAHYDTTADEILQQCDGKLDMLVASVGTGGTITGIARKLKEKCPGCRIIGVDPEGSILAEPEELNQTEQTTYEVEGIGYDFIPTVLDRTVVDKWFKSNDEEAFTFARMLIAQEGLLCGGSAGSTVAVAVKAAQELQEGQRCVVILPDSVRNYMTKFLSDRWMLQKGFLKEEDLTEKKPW
Description: Loss of purified enzyme activity. It counts as biochemical.

For `O=NOO` [peroxynitrite, oxoperoxonitrate(1-)], the IC50 was around 150 µM.

The values above are taken from article PMC2783175 (Archives of biochemistry and biophysics, 2009).
